Data published in patent publication US8143254B2, “Methods for modulating ion channels” (Cornell Research Foundation, Inc., priority 2005, dated 2012).

Biological target: T1, Kv2.1 channels expressed in CHO cells (Rattus norvegicus, UniProt P15387)
T1 construct: expressed in transfected cells; host or cells: CHO cells (transient, co-transfected with GFP plasmid)
T1 sequence (P15387 1-857): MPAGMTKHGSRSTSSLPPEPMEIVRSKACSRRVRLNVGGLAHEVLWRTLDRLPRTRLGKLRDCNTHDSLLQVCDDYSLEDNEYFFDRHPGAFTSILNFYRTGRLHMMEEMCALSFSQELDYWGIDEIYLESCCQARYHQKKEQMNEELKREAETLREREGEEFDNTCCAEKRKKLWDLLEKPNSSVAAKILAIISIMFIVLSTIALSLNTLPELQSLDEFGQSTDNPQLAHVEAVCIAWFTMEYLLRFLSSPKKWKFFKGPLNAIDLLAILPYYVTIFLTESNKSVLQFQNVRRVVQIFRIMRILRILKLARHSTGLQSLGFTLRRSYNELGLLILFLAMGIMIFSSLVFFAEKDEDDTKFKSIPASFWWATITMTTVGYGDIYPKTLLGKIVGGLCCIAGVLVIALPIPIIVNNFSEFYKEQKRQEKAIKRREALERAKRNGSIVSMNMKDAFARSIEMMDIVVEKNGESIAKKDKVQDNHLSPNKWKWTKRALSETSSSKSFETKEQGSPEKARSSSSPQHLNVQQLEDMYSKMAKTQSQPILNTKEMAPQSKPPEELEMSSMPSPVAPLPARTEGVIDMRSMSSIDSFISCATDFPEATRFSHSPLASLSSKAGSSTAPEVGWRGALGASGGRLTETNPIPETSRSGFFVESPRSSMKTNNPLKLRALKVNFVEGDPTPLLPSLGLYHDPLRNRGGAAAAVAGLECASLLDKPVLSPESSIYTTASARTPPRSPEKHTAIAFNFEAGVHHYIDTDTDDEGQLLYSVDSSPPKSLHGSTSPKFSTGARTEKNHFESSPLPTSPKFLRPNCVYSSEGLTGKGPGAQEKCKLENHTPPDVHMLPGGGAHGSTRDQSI
Assay: Whole-cell voltage clamp of CHO cells transfected with Kv2.1
Assay type: cell-based
Source text: Kv2.1 mutants were constructed using the QuickChange Multi Site-Directed Mutagenesis Kit (Stratagene, La Jolla, Calif.). Mutant Kv2.1 genes (in the pGA1 oocyte expression vector for oocyte expression) were sequenced in their entirety to confirm appropriate mutations and check for inadvertent mutations, and then subcloned into a wild-type pGA1 backbone. For oocyte expression, Kv3.4 was in pBF1, Kv4.2 was in pRAT. cRNA transcripts were produced from SacII-linearized (Kv2.1), Mlullinearized (Kv3.4) and Not1-linearized (Kv4.2) DNA templates using the T3 (Kv2.1), SP6 (Kv3.4) and T7 (Kv4.2) mMessage mMachine kits (Ambion, Austin, Tex.). cRNA was quantified by spectrophotometry and its size integrity verified by gel electophoresis. Defolliculated stage V and VI Xenopus laevis oocytes (purchased from Nasco, Grand Island, N.Y.) were injected with 5 ng of cRNA encoding Kv2.1, Kv3.4 or Kv4.2. Chinese Hamster Ovary (CHO) cells were transfected with 0.25 μg Kv2.1 cDNA, 2 μg blank plasmid and 2 μg Green fluorescent Protein in pBOB using Supetfect transfection reagent (Qiagen) 24 hours before whole-cell voltage clamp studies.
For whole-cell voltage clamp studies of CHO cells, bath solution was (in mM): 135 NaCl, 5 KCl, 1.2 MgCl2, 5 HEPES, 2.5 CaCl2, and 10 D-glucose, pH 7.4. Pipettes were 3-5 MQ resistance when filled with intracellular solution containing (in mM): 10 NaCl, 117 KCl, 2 MgCl2, 11 HEPES, 11 EGTA, and 1 CaCl2, pH 7.2. For experiments with extracellular drug application, cells were held at −80 mV and subjected to 2 sec test pulses […] every 30 s. Whole-cell patch clamp recordings were performed at 22-25° C. using an IX50 inverted microscope equipped with epifluorescence optics for GFP detection (Olympus), a Multiclamp 700 A Amplifier, a Digidata 1300 Analogue/Digital converter and pClamp9 software (Axon Instruments). Leak and liquid junction potentials (<4 mV) were not compensated for when generating current-voltage relationships. For intracellular drug application, the tip of the recording electrode was first filled with drug-free intracellular solution, the electrode was then back-filled with intracellular solution containing TEA (20 mM), TA279 (5 mM) or JC638.2α (0.5 mM). Cells were held at −80 mV and subjected to 2 sec test pulses from −60 mV to +60 mV in 10 mV increments, followed by a 1 sec tail pulse to −30 mV. After an initial recording which we denoted time 0, a second recording was performed after 5 minutes.
Data analysis: Current-voltage relationships were obtained by measuring peak current during depolarizing pulses. Inhibition constants for DABCO blockers were calculated after generating a dose response curve by fitting with a logistic dose-response function y=A2+[A1−A2/1+(x/x0)^p], where A1 is the maximum response plateau, A2 is the minimum response plateau, x is drug concentrator, x0 is the IC50, and p the Hill slope. Data analysis was performed using CLAMPFIT 9 (Axon Instruments, Foster City, Calif.) and tabulated in Excel 5.0. Graphs were generated using Origin 6.1. Data are expressed as mean±SEM, with n specifying the number of independent experiments. Statistical significance was assessed by one-way ANOVA with p<0.05 being indicative of significance.

c1cc(C[N+]23CCN(CC2)CC3)ccc1C[N+]12CCN(CC1)CC2 [JC638.2α, α,α′-[bis(4-aza-1-azoniabicyclo[2.2.2]octanyl)]p-xylene]
block on intracellular application (0.5 mM via recording electrode, 0 mV): no significant block

CCCCCCCCCCCCCCCC[N+]12CCN(CC1)CC2 [TA279, 1-aza-4-azonia-4-hexadecylbicyclo[2.2.2]octane]
sensitivity of Kv2.1 in CHO cells relative to Kv2.1 in oocytes: ~4 fold | block on intracellular application (5 μM via recording electrode, 0 mV, at 0 or 5 minutes): no significant block | inhibition at 0.5 µM (CHO, extracellular application, 500 nM, 0 mV, n=3, read-out: mean current inhibition): 59 ± 4%
